Tests used:
[1] = tested on: PC cells (primary cardiac cells); assay: In vitro cytotoxicity, MTT bioassay; assay type: cell-based, Wistar rats; conditions: 1–200 μM, 24 h
[2] = tested on: AMI rats; set-up: species or system Sprague Dawley rats; conditions: rat, in vivo, 50 mg/kg
[3] = In vivo pharmacokinetics after iv administration in AMI rats; conditions: plasma concentration–time profile

Cc1coc2c1C(=O)C(=O)c1c-2ccc2c1CCCC2(C)C [Free TN, tanshinone IIA]
in vitro cytotoxicity (in words) [1]: obvious higher cytotoxicity than the nanocarriers in high concentrations (100 and 200 μM) | infarct size (percentage of whole size of the left ventricle) [2]: 51%±1.8% | time within which cleared from the circulation [3]: ≤ 6 h
